What all share (assay type): cell-based
One assay relates to VEEV (ZPC). Nature of the assay: microbe, parasite or virus in culture. The following applies: Venezuelan equine encephalitis virus.
In the next assay the test system is MAYV. Nature of the assay: Activity of Example 1 against other alphaviruses: MAYV.
The next assay deals with SINV (TR-339). Nature of the assay: organism not typed.
For another assay, the system named is BK Polyomavirus. Nature of the assay: Activity of Example 1 against non-alphaviruses: BK Polyomavirus. The following applies: Betapolyomavirus hominis.
The subject of a further assay is CHIKV 181/clone25. Nature of the assay: CHIKV cytopathic effect (CPE) protection assay in Vero cells. The following applies: Chikungunya virus; CHIKV 181/clone25, Vero cells, MOI=0.01, 48 hrs, protection from CPE (crystal violet, absorbance 595nm). (In general: Cytopathic effects are the visible damage that an infection or toxin causes in cultured cells.)
Another assay has as its system ONNV (SG-650). Nature of the assay: Activity of Example 1 against other alphaviruses: ONNV.
In the next assay the test system is Vaccinia. Nature of the assay: Activity of Example 1 against non-alphaviruses: Vaccinia. The following applies: Orthopoxvirus vaccinia.
In another assay the test system is Influenza. Nature of the assay: Activity of Example 1 against non-alphaviruses: Influenza.
For another assay, the system named is Dengue. Put plainly: Activity of Example 1 against non-alphaviruses: Dengue. The following applies: Dengue virus.

Here are results for 22 compounds from patent US20220233549A1, “METHOD FOR ALPHAVIRUS INHIBITION” (priority 2019, published 2022).

For orientation: EC50 means the concentration giving half of the maximal effect. Lower therefore signals greater potency.

As for `CN1C(=O)C(CC(=O)NCC2CCCCC2)Sc2ncccc21` (stereo not drawn) [Example 1, N-(cyclohexylmethyl)-2-(1-methyl-2-oxo-2,3-dihydro-1H-pyrido[2,3-b][1,4]thiazin-3-yl)acetamide], the EC50 was less than 10 µM in the assay with VEEV (ZPC); 10 to 49.9 µM in the assay on MAYV; more than 100 µM with SINV (TR-339); more than 100 µM in the assay with BK Polyomavirus; less than 10 µM in the assay on CHIKV 181/clone25; less than 10 µM in the assay with ONNV (SG-650). Also, the EC50 in the assay with Vaccinia, in the assay with Influenza and in the assay with Dengue was more than 100 µM throughout. In the case of `O=C(CC1Sc2ncccc2NC1=O)NCCCC(F)(F)F` (stereo not drawn) [Example 72, 2-(2-oxo-2,3-dihydro-1H-pyrido[2,3-b][1,4]thiazin-3-yl)-N-(4,4,4-trifluorobutyl)acetamide], the EC50 in the assay with CHIKV 181/clone25 was more than 100 µM. Same read-out and setting: in the case of `O=C(CC1CCCCC1)NCC1Sc2ncccc2NC1=O` (stereo not drawn) [Example 73, 2-cyclohexyl-N-((2-oxo-2,3-dihydro-1H-pyrido[2,3-b][1,4]thiazin-3-yl)methyl)acetamide] it was 10 to 49.9 µM; in that of `O=C(CC1Sc2ncccc2NC1=O)NCCC(F)(F)F` (stereo not drawn) [Example 74, 2-(2-oxo-2,3-dihydro-1H-pyrido[2,3-b][1,4]thiazin-3-yl)-N-(3,3,3-trifluoropropyl)acetamide], more than 100 µM; in that of `CCC(C)(C)CNC(=O)CC1Sc2ncccc2NC1=O` (stereo not drawn) [Example 75, N-(2,2-dimethylbutyl)-2-(2-oxo-2,3-dihydro-1H-pyrido[2,3-b][1,4]thiazin-3-yl)acetamide], less than 10 µM. The compound `CCC1(CNC(=O)CC2Sc3ncccc3NC2=O)CCCCC1` (stereo not drawn) [Example 76, N-((1-ethylcyclohexyl)methyl)-2-(2-oxo-2,3-dihydro-1H-pyrido[2,3-b][1,4]thiazin-3-yl)acetamide] gave an EC50 in the assay on CHIKV 181/clone25 of less than 10 µM.

In the assay on CHIKV 181/clone25, `O=C(CC1Sc2ncccc2NC1=O)NCC1(O)CCCCC1` (stereo not drawn) [Example 77, N-((1-hydroxycyclohexyl)methyl)-2-(2-oxo-2,3-dihydro-1H-pyrido[2,3-b][1,4]thiazin-3-yl)acetamide] registered an EC50 of less than 10 µM.

Take `O=C(CC1Sc2ncccc2NC1=O)NCC1(F)CCCCC1` (stereo not drawn) [Example 78, N-((1-fluorocyclohexyl)methyl)-2-(2-oxo-2,3-dihydro-1H-pyrido[2,3-b][1,4]thiazin-3-yl)acetamide]: the EC50 with CHIKV 181/clone25 was less than 10 µM. Same read-out and setting: in the case of `COC1(CNC(=O)CC2Sc3ncccc3NC2=O)CCCCC1` (stereo not drawn) [Example 79, N-((1-methoxycyclohexyl)methyl)-2-(2-oxo-2,3-dihydro-1H-pyrido[2,3-b][1,4]thiazin-3-yl)acetamide] it was less than 10 µM. Consider `NC1(CNC(=O)CC2Sc3ncccc3NC2=O)CCCCC1` (stereo not drawn) [Example 80, N-((1-aminocyclohexyl)methyl)-2-(2-oxo-2,3-dihydro-1H-pyrido[2,3-b][1,4]thiazin-3-yl)acetamide], for which the EC50 in the assay with CHIKV 181/clone25 is more than 100 µM.

For the compound `CCCOC1(CNC(=O)CC2Sc3ncccc3NC2=O)CCCCC1` (stereo not drawn) [Example 81, 2-(2-oxo-2,3-dihydro-1H-pyrido[2,3-b][1,4]thiazin-3-yl)-N-((1-propoxycyclohexyl)methyl)ace-tamide], the EC50 in the assay on CHIKV 181/clone25 is 10 to 49.9 µM. Still for that read-out and setting: for `COCC1(CNC(=O)CC2Sc3ncccc3NC2=O)CCCCC1` (stereo not drawn) [Example 82, N-((1-(methoxymethyl)cyclohexyl)meth-yl)-2-(2-oxo-2,3-dihydro-1H-pyrido[2,3-b][1,4]thiazin-3-yl)acetamide] the value was 50 to 99.9 µM; for `O=C(CC1Sc2cnccc2NC1=O)NCC1CCCCC1` (stereo not drawn) [Example 83, N-(cyclohexylmethyl)-2-(2-oxo-2,3-dihydro-1H-pyrido[3,4-b][1,4]thiazin-3-yl)acetamide], more than 100 µM; for `O=C(CC1Sc2ccncc2NC1=O)NCC1CCCCC1` (stereo not drawn) [Example 84, N-(cyclohexylmethyl)-2-(3-oxo-3,4-dihydro-2H-pyrido[4,3-b][1,4]thiazin-2-yl)acetamide], more than 100 µM. In the assay with CHIKV 181/clone25, `O=C(CC1Sc2ncccc2NC1=O)NCC1=CCCCC1` (stereo not drawn) [Example 85, N-(cyclohex-1-en-1-ylmethyl)-2-(2-oxo-2,3-dihydro-1H-pyrido[2,3-b][1,4]thiazin-3-yl)acetamide] showed an EC50 of 10 to 49.9 µM. Still for that read-out and setting: in the case of `O=C(CC1Sc2ncccc2NC1=O)NCC1CC=CCC1` (stereo not drawn) [Example 86, N-(cyclohex-3-en-1-ylmethyl)-2-(2-oxo-2,3-dihydro-1H-pyrido[2,3-b][1,4]thiazin-3-yl)acetamide] it was less than 10 µM; in that of `O=C(CC1Sc2ncc(Br)cc2NC1=O)NCC1CCCCC1` (stereo not drawn) [Example 87, 2-(7-bromo-2-oxo-2,3-dihydro-1H-pyrido[2,3-b][1,4]thiazin-3-yl)-N-(cyclohexylmethyl)acetamide], 10 to 49.9 µM. On the same count and under the same terms, in the case of `O=C(CC1Cc2ncccc2NC1=O)NCC1CCCCC1` (stereo not drawn) [Example 88, N-(cyclohexylmethyl)-2-(2-oxo-1,2,3,4-tetrahydro-1,5-naphthyridin-3-yl)acetamide] it was 10 to 49.9 µM. On the same count and under the same terms, in the case of `O=C(CC1Cc2ncccc2NC1=O)NCC1(F)CCCCC1` (stereo not drawn) [Example 89, N-((1-fluorocyclohexyl)methyl)-2-(2-oxo-1,2,3,4-tetrahydro-1,5-naphthyridin-3-yl)acetamide] it was 10 to 49.9 µM; in that of `O=C(CC1Cc2ncccc2NC1=O)NCc1ccc(F)cc1` (stereo not drawn) [Example 90, N-(4-fluorobenzyl)-2-(2-oxo-1,2,3,4-tetrahydro-1,5-naphthyridin-3-yl)acetamide], 10 to 49.9 µM; in that of `O=C(CC1Oc2ncccc2NC1=O)NCC1CCCCC1` (stereo not drawn) [Example 91, N-(cyclohexylmethyl)-2-(2-oxo-2,3-dihydro-1H-pyrido[2,3-b][1,4]oxazin-3-yl)acetamide], 10 to 49.9 µM. `O=C(CC1CNc2cccnc2S1)NCC1CCCCC1` (stereo not drawn) [Example 92, N-(cyclohexylmethyl)-2-(2,3-dihydro-1H-pyrido[2,3-b][1,4]thiazin-3-yl)acetamide] had a concentration giving a half-maximal response (EC50) with CHIKV 181/clone25 of 10 to 49.9 µM.
